Publication PMC4721142, “Randomized controlled studies on the efficacy of antiarthritic agents in inhibiting cartilage degeneration and pain associated with progression of osteoarthritis in the rat” (Arthritis Research & Therapy, 2016)
Read-outs that look alike come from different tables or passages of the source.

Legend:
[1] = system: RAW 264.7 cells; assay: RANKL-mediated osteoclastogenesis / matrix resorption (Osteologic) assay; format: cell-based, murine; conditions: for minimal effective concentration: Mus musculus, RAW264.7, 168 h, read-out: Lowest inhibitory concentration, matrix resorption
Method: RAW 264.7 cells (American Type Culture Collection [ATCC], Manassas, VA, USA), a murine monocytic cell line that differentiates in the presence of RANKL, was used for measurements of osteoclastogenesis and osteoclast activity. Cells were amplified on nonadherent culture substratum in high-glucose Dulbecco’s modified Eagle’s medium (DMEM) containing 10 % fetal bovine serum (FBS) and penicillin-streptomycin in a 37 °C, 5 % CO2, humidified incubator and were passaged by manual dissociation. […] Plates were subsequently rinsed, bleached, dried, and analyzed for matrix degradation using a Nikon COOLSCOPE (Nikon Instruments, Melville, NY, USA). Matrix resorption was quantified using EclipseNet (Nikon Instruments)/Visiopharm (Visiopharm, Hørsholm, Denmark) software (see Additional file 1).
In Vitro Osteoclastogenesis
Osteoclastogenic activity was measured using BD osteologic plates and quantitation of the degree of bone matrix digestion on the plate surface. Images from the BD Osteologic assay used to […]
left pane depicts an example of a control well after removal of cells from matrix. Pseudocoloring of matrix (blue) and pits (green) is shown in the far right pane. A transparent overlay of the two images is shown in the center.
Figure 5 - Measurement of drug effects on osteoclastogenesis and osteoclast activity.
Comparisons were made between RANKL treated control wells and wells treated with both RANKL and […]
Agents were initially tested either during differentiation or post differentiation in the bone assay […]
(e.g., Figure 2, Sulfazalazine). […]
indicated (*/**: p < 0.05/0.01, unpaired t-test versus RANKL control). […]

[2] = Comparison of in vitro screens: overlapping effective and nontoxic range; conditions: for Overlapping effective and nontoxic range: inhibits with minimal or no toxicity to synovium or cartilage, overlapping range if effective in more than one assay;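 for all read-outs here: compares non-toxic ranges in synovial cells and chondrocytes with effective ranges against NFkB, MMP-13 and osteoclasts, giving their overlap as the predicted efficacy range in uM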
[3] = system: Normal human articular chondrocytes; assay: Cytotoxicity to chondrogenic pellets (CellTiter-Blue)
Method: Differentiated chondrogenic pellets were used both to test the ability of drugs to block MMP-13 activity and to test for drug toxicity. […] Supernatants were collected and analyzed for MMP-13 using an enzyme-linked immunosorbent assay (GE Healthcare Life Sciences, Little Chalfont, UK). Cytotoxicity to pellets was assessed using CellTiter-Blue (Promega).

[4] = system: SW982; assay: Synovial toxicity (CellTiter-Glo), with or without TNF-α
Method: Viability was measured with the CellTiter-Glo luminescent viability assay (Promega). […] To more accurately predict the effects of the drugs on osteoarthritic synovium, cells were tested with or without TNF-α (20 ng/ml; BioSource).
In Vitro Toxicity Testing with a Synovial Cell Line
Compounds were tested for synovial toxicity using SW982 cells alone or in the presence of TNF as

[5] = published half-life; cited from earlier work
[6] = system: NF-κB; assay: TNF-α-stimulated NF-κB dual luciferase reporter assay in HeLa cells; format: cell-based
Method: NF-κB activity was assessed using a previously described dual plasmid reporter system. HeLa cells were transfected with NF-κB luciferase (Stratagene Products Division, Agilent Technologies, La Jolla, CA, USA) and pRLuc-N3 (PerkinElmer, Waltham, MA, USA) at an 8:1 ratio, respectively, in triplicate. […] NF-κB activity was measured 5 h later with a Dual-Glo Luciferase Assay (Promega, Madison, WI, USA) and an Omni plate reader (BMG Labtech, Cary, NC, USA). The ratio of firefly luciferase luminescence (NF-κB reporter) to Renilla luciferase luminescence (control) was normalized for the number of viable transfected cells. Data are reported as a ratio of activity of viable treated cells over the activity of cells not exposed to TNF-α or drug (fold stimulation above basal untreated levels of activity). The viability of HeLa cells with and without drug was also measured using a CellTiter-Glo luminescent viability assay (Promega). […]
NF-κB activity was assessed in HeLa cells that were transiently transfected with two reporter constructs as described in the manuscript. Agents were tested for their ability to block TNF- […]
Expression of the luciferase from the Renilla construct was used as a measure of viability, which was confirmed with a cytotoxicity assay (see later section).

[7] = system: HeLa cells; assay: HeLa cell viability (CellTiter-Glo)
Method: NF-κB activity was assessed using a previously described dual plasmid reporter system. HeLa cells were transfected with NF-κB luciferase (Stratagene Products Division, Agilent Technologies, La Jolla, CA, USA) and pRLuc-N3 (PerkinElmer, Waltham, MA, USA) at an 8:1 ratio, respectively, in triplicate. […] NF-κB activity was measured 5 h later with a Dual-Glo Luciferase Assay (Promega, Madison, WI, USA) and an Omni plate reader (BMG Labtech, Cary, NC, USA). The ratio of firefly luciferase luminescence (NF-κB reporter) to Renilla luciferase luminescence (control) was normalized for the number of viable transfected cells. Data are reported as a ratio of activity of viable treated cells over the activity of cells not exposed to TNF-α or drug (fold stimulation above basal untreated levels of activity). The viability of HeLa cells with and without drug was also measured using a CellTiter-Glo luminescent viability assay (Promega).
In Vitro Hela Cell Drug Toxicity Testing
Potential drug toxicity was measured using a CTG assay and HeLa cells (Promega). Drugs not tested in
this assay were tested in either of the in vitro toxicity assays already presented (synovial or chondrocyte
Table 3- Drug toxicity measured using a CTG assay and HeLa cells.

[8] = system: MMP-13; assay: MMP-13 ELISA on supernatants of TNF-α-treated chondrogenic pellets; format: cell-based, human; conditions: for Concentration inhibiting MMP-13: > = failed to inhibit up to highest concentration tested

Molecule	Effective range against Osteoclasts [1]	Non-toxic & predicted range of efficacy [2]	Non-toxic range (Chondrocyte) [3]	Non-toxic range (Synovial) [4]	Overlapping effective and nontoxic range [2]	t 1/2 [5]	other results
O=C(c1ccccc1)c1ccc2n1CCC2C(=O)O (centres unmarked) [Keterolac]	Not effective	≥ 12.5 µM	3.17 to 200 µM	0.625 to 40 µM	–	–	–
O=C(O)c1cc(/N=N/c2ccc(S(=O)(=O)Nc3ccccn3)cc2)ccc1O [Sulfasalazine]	–	50 to 400 µM	12.5 to 800 µM	12.5 to 400 µM	150 to 1600 µM	NSAID t 1/2 = 5 – 10 h	–
O=C(O)c1cc(O)c2c(c1)C(=O)c1cccc(O)c1C2=O [Rhein]	Not effective	40 µM	0.625 to 40 µM	625000 to 4e+07 µM	–	Anthraquinone-active metabolite of diacerein Reduces proliferation of chondrocytes and synoviocytes; inhibits NF-κB activation in vitro [101] t 1/2 = 4.3 h	Effective against NF κβ (p<0.05) [6]: Only at toxic; Non-toxic concentrations [7]: 2.5 to 20 µM
CC[C@@H]1/C=C(\C)C[C@H](C)C[C@H](OC)[C@H]2O[C@@](O)(C(=O)C(=O)N3CCCC[C@H]3C(=O)O[C@H](/C(C)=C/[C@@H]3CC[C@H](Cl)[C@H](OC)C3)[C@H](C)[C@@H](O)CC1=O)[C@H](C)C[C@@H]2OC [Pimecrolimus]	–	2.5 to 40 µM	0.625 to 40 µM	0.625 to 40 µM	2.5 to 20 µM	Ascomycin macrolactam derivative Like tacrolimus, a calcineurin inhibitor that inhibits release of inflammatory cytokines [97] t 1/2 = 30–100 h	minimal effective concentration [1]: 0.01 µM; Effective range against MMP-13 [8]: Not effective; Concentration inhibiting MMP-13 [8]: > 40 µM
CC[C@@H]1/C=C(\C)C[C@H](C)C[C@H](OC)[C@H]2O[C@@](O)(C(=O)C(=O)N3CCCC[C@H]3C(=O)O[C@H](/C(C)=C/[C@@H]3CC[C@@H](O)[C@H](OC)C3)[C@H](C)[C@@H](O)CC1=O)[C@H](C)C[C@@H]2OC [Ascomycin]	–	1.25 to 40 µM	0.625 to 40 µM	625000 to 4e+07 µM	1.25 to 40 µM	–	minimal effective concentration [1]: 0.01 µM; Effective range against MMP-13 [8]: Not effective; Concentration inhibiting MMP-13 [8]: > 40 µM
CC(=O)Oc1cccc2c1C(=O)c1c(OC(C)=O)cc(C(=O)O)cc1C2=O [Diacerein]	–	None	All toxic	1.5 to 54.3 µM	Toxic to chondrocytes	–	Non-toxic concentrations ([7]; (TNF), i.e. without TNF): 0 to 1.375e+07 µM; Non-toxic concentrations ([7]; +TNF): 0 to 2.275e+07 µM; Toxic concentrations (p<0.05) ([7]; with TNF): 50 to 110 M
COc1ccc(CCN(C)CCCC(C#N)(c2ccc(OC)c(OC)c2)C(C)C)cc1OC (centres unmarked) [Verapamil]	Not effective	–	–	–	–	–	–
Cc1ccc(S(=O)(=O)/C=C/C#N)cc1 [BAY-117082, BAY-11-7082]	≥ 3 µM	None	0.18 to 1.5 µM	3 to 6 µM	6 to 192 µM	–	Effective against NF κβ (p<0.05) [6]: 12 to 96 µM; Effective range against NFkB [6]: 12 to 96 µM; Effective range against MMP-13 [8]: ≥ 0.75 µM; Non-toxic concentrations [7]: 6 to 96 µM; Concentration with notable toxicity [4]: 12 µM
CC1(C)O[C@@H]2C[C@H]3[C@@H]4CCC5=CC(=O)C=C[C@]5(C)[C@@]4(F)[C@@H](O)C[C@]3(C)[C@]2(C(=O)CO)O1 [Triamcinolone acetonide]	–	31.25 to 500 µM	–	0.7 to 250 µM	250 to 500 µM	Steroid t 1/2 = 88 min	Lowest inhibitory concentration, matrix resorption [1]: 250 µM
CC1=C(CC(=O)O)c2cc(F)ccc2/C1=C\c1ccc([S+](C)[O-])cc1 (centres unmarked) [Sulindac]	–	8.8 to 280 µM	4.35 to 280 µM	4.4 to 280 µM	280 µM	NSAID t 1/2 = 7.8 h	Non-toxic concentrations [7]: 8.75 to 70 µM
Epigallocatechin-3-gallate [EGCG]	None?	5.5 to 44 µM	690000 to 4.4e+07 µM	690000 to 4.4e+07 µM	5.5 to 44 µM	–	Effective range against NFkB [6]: 5.5 to 88 µM; Effective range against MMP-13 [8]: ≥ 5.5 µM
CNC(=O)[C@H](Cc1c[nH]c2ccccc12)NC(=O)[C@@H](CC(=O)NO)CC(C)C [GM6001]	Not effective	–	0.4 to 25 µM	0.33 to 25 µM	–	–	MMP-13, effective concentration [8]: 25
Nc1cc(-c2ccncc2)c[nH]c1=O [Amrinone]	Not effective	≥ 80 µM	1.25 to 80 µM	1.25 to 40 µM	80 µM	–	Effective range against NFkB [6]: None; MMP-13, effective concentration ([8]; number printed in the class column): 80
Oc1ccc(/C=C/c2cc(O)cc(O)c2)cc1 [Resveratrol]	–	–	3.12 to 200 µM	3.12 to 100 µM	–	Suppresses IL-1β signaling and IL-1β-stimulated apoptosis in osteoarthritis [98] A natural inhibitor of NF-κB [99] t 1/2 = 1–3 h	Effective range against NFkB [6]: Not effective; Lowest inhibitory concentration, matrix resorption [1]: 6.25 µM
